In patent US11046672B2, “Indolinones compounds and their use in the treatment of fibrotic diseases” (RESPIVERT LIMITED, priority 2015, dated 2021):
“And” between values parts separate entries of the source, which are not always exact repeats. Identical values can stand only once. Like-named read-outs stand apart in the source and are kept apart here.

Experiments:
PDGFRβ [1] = molecular target: T1, PDGFRβ (Homo sapiens (Human), UniProt P09619); assay: PDGF-BB induced phosphorylation of PDGFRβ in fibroblasts (MRC5 cells, HTRF); assay type: cell-based; conditions: MRC5 cells; n = 1 unless otherwise indicated; read-out: PDGFBB-induced PDGFRβ phosphorylation in MRC5 cells (IC50)
PAMPA permeability assay = assay type: in vitro ADME; conditions: for recovery at 5 hr, 10 μM / Papp at 5 h, 10 μM / % Recovery: PAMPA; for recovery at 5 hr, 10 μM: pH 7, PAMPA; for recovery at 5 hr, 10 μM / % Recovery: donor and acceptor compartments; for Papp at 5 h, 10 μM: pH 7, pH 7, 10 μM
[2] = Pharmacokinetic measurements in rats (intravenous and intra-tracheal dosing); assay type: in vivo; conditions: rat; for concentration at 0.1 h / concentration at 1.5 h / concentration at 24 h / Kp at 0.1 h / Kp at 1.5 h / Kp at 24 h / MRT / clearance / Vd / half-life / concentration at 6 h / Kp at 6 h: male, CD; for concentration at 0.1 h / concentration at 1.5 h / concentration at 24 h / concentration at 6 h: lung, read-out: lung concentration (nM) at time (h); for Kp at 0.1 h / Kp at 1.5 h / Kp at 24 h / Kp at 6 h: lung/plasma; for MRT / clearance / Vd / half-life: plasma; for clearance: i.v. dosing (i.v. dose 0.1-0.5 per compound); for Vd: read-out: Vss; for half-life: read-out: t½ (converted); for i.t. BAV (%): i.t. dosing (i.t. dose 0.1-0.5 per compound)
PDGFRβ [3] = molecular target: T1, PDGFRβ; conditions: read-out: Ki PDGFRβ; mean, n = 2 unless otherwise indicated
MRC5 cells = assay: Cell viability assay in MRC5 cells (MTT)
PDGFRβ [4] = molecular target: T1, PDGFRβ; assay: Duration of action (washout) against PDGF-BB induced phosphorylation of PDGFRβ in human fetal lung fibroblast cells; assay type: cell-based; conditions: MRC-5 cells; for % phos: percentage phosphorylation after wash-out relative to maximal phosphorylation (100%): rhuPDGF-BB, experiments in Groups 1-4
[5] = other: intra-tracheal, i.t. dosing, 0.1 h
[6] = other: intra-tracheal, i.t. dosing, 1.5 h
[7] = other: intra-tracheal, i.t. dosing, 24 h
[8] = iv, i.v. dosing, 0.1 h, read-out: lung/plasma ratio at time(h)
[9] = iv, i.v. dosing, 1.5 h, read-out: lung/plasma ratio at time(h)
[10] = other: intra-tracheal, i.t. dosing, 0.1 h, read-out: lung/plasma conc ratio at time(h)
[11] = other: intra-tracheal, i.t. dosing, 1.5 h, read-out: lung/plasma conc ratio at time(h)
[12] = other: intra-tracheal, i.t. dosing, 24 h, read-out: lung/plasma conc ratio at time(h)

T1 sequence (P09619 33-1106): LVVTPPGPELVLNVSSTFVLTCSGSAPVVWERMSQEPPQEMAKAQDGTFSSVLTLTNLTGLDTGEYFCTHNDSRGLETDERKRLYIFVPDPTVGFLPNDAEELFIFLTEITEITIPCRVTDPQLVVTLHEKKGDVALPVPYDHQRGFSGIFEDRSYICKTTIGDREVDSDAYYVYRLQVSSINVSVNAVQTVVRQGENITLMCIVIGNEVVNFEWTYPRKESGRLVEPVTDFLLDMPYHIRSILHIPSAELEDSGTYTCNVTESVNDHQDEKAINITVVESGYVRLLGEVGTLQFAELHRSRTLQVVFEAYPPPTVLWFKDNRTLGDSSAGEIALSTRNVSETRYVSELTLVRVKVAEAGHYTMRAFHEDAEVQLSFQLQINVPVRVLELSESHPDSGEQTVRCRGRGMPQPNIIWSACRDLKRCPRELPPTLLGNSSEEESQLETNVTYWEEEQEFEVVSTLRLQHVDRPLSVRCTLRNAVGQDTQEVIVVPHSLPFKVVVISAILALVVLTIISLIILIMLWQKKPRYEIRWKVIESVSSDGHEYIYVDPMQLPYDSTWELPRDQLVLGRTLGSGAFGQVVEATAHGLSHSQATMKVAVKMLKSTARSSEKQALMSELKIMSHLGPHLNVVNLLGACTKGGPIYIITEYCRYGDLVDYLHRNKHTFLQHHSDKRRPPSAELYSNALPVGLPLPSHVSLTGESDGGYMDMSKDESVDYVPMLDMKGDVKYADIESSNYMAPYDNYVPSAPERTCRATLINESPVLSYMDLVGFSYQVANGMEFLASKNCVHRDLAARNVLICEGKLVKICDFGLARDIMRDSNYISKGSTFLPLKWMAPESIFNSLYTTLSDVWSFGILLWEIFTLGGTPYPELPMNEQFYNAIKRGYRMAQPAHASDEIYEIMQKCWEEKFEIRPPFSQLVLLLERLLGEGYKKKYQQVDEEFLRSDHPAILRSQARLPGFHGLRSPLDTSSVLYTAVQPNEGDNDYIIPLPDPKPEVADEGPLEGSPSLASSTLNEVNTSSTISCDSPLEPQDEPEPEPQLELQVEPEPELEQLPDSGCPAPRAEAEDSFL

SMILES	IC50 (PDGFRβ [1])	Papp at 5 h, 10 μM (PAMPA permeability assay; 5 hr)	concentration at 0.1 h ([2]; iv, i.v. dosing, 0.1 h)	concentration at 1.5 h ([2]; iv, i.v. dosing, 1.5 h)	concentration at 24 h ([2]; iv, i.v. dosing, 24 h)	concentration at 0.1 h [2, 5]	concentration at 1.5 h [2, 6]	concentration at 24 h [2, 7]	Kp at 0.1 h [2, 8]	Kp at 1.5 h [2, 9]	Kp at 0.1 h [2, 10]	Kp at 1.5 h [2, 11]	Lung conc i.t./i.v. Ratio at time (h) ([2]; 0.1 h)	Lung conc i.t./i.v. Ratio at time (h) ([2]; 1.5 h)	Lung conc i.t./i.v. Ratio at time (h) ([2]; 24 h)	BAL % administered dose at time (h) ([2]; i.t. dosing, 0.1 h)	Ki (PDGFRβ [3])	Cell viability at 100 nM (%) (MRC5 cells)	Cell viability at 300 nM (%) (MRC5 cells)	Cell viability at 1000 nM (%) (MRC5 cells)	other results
COC(=O)c1ccc2c(c1)NC(=O)/C2=C(\Nc1ccc(C(=O)NOCCN2CCN(C)CC2)cc1)c1ccccc1 [Example 4, (Z)-Methyl 3-(((4-((2-(4-methylpiperazin-1-yl)ethoxy)carbamoyl)phenyl)amino)(phenyl)methylene)-2-oxoindoline-6-carboxylate]	15.2 nM		419 nM	266 nM	12 nM	5540 nM	1540 nM	218 nM	77	285	279	1320	13.2	5.8	18.2	3%	9.66 nM	99.2%	94.8%	88.8%	Duration of action as inhibitors of PDGFRβ compared with nintedanib (PDGFRβ [4]; wash-out): longer duration of action; % Recovery (PAMPA permeability assay): 44.9% and 75.6%; MRT ([2]; iv, i.v. dosing): 2.4 h; clearance ([2]; iv): 462 mL/min/kg; Vd ([2]; iv, i.v. dosing): 39 L/kg; half-life ([2]; iv, i.v. dosing): 2.2 h; i.t. BAV (%) [2]: 67%; BAL % administered dose at time (h) ([2]; i.t. dosing, 1.5 h): 0.3%; BAL % administered dose at time (h) ([2]; i.t. dosing, 24 h): 0.1%; BAL % administered dose at time (h) ([2]; i.v. dosing, 0.1 h): 0.01%; BAL % administered dose at time (h) ([2]; i.v. dosing, 1.5 h): BLQ; BAL % administered dose at time (h) ([2]; i.v. dosing, 24 h): BLQ; lung/plasma ratio at time(h) ([2]; i.v. dosing, 24 h): BLQ
COC(=O)c1ccc2c(c1)NC(=O)/C2=C(\Nc1ccc(C(=O)NOCCN(C)C)cc1)c1ccccc1 [Example 3, (Z)-Methyl 3-(((4-((2-(dimethylamino)ethoxy)carbamoyl)phenyl)amino)(phenyl)methylene)-2-oxoindoline-6-carboxylate]	7.14 nM	0.0384 ×10⁻⁶ cm/s	719 nM	325 nM	28 nM	6690 nM	1680 nM	247 nM	126	315	176	1430	9.3	5.2	8.8	3%	11.4 nM	106%	85.4%	67.2%	% phos: percentage phosphorylation after wash-out relative to maximal phosphorylation (100%) (PDGFRβ [4]): 34.6%; % Recovery (PAMPA permeability assay): 76% and 55.3%; Mean Papp (PAMPA permeability assay; pH 7, 10 μM, 5 hr): 0.023 10^−6 cm s^−1; Kp at 24 h [2, 12]: 503; MRT ([2]; iv, i.v. dosing): 3 h; clearance ([2]; iv): 285 mL/min/kg; Vd ([2]; iv, i.v. dosing): 51 L/kg; half-life ([2]; iv, i.v. dosing): 3.1 h; i.t. BAV (%) [2]: 325%; BAL % administered dose at time (h) ([2]; i.t. dosing, 1.5 h): 0.3%; BAL % administered dose at time (h) ([2]; i.t. dosing, 24 h): 0.1%; BAL % administered dose at time (h) ([2]; i.v. dosing, 0.1 h): 0.03%; BAL % administered dose at time (h) ([2]; i.v. dosing, 1.5 h): 0.02%; BAL % administered dose at time (h) ([2]; i.v. dosing, 24 h): BLQ
COC(=O)c1cc2c(cc1C)/C(=C(/Nc1ccc(C(=O)NOCCN3CCN(CCO)CC3)cc1)c1ccccc1)C(=O)N2 [Example 7, (Z)-Methyl 3-(((4-((2-(4-(2-hydroxyethyl)piperazin-1-yl)ethoxy)carbamoyl)phenyl)amino)(phenyl)methylene)-5-methyl-2-oxoindoline-6-carboxylate]	10.4 nM	0.0245 ×10⁻⁶ cm/s	329 nM	172 nM	30 nM	2100 nM	881 nM	519 nM	17	15	233	114	6	5	17	5.3%	6.6 nM	90.7%	98%	86.8%	% phos: percentage phosphorylation after wash-out relative to maximal phosphorylation (100%) (PDGFRβ [4]): 84.7%; recovery at 5 hr, 10 μM (PAMPA permeability assay): 58.1%; concentration at 6 h ([2]; iv, 0.1 mg/kg, i.v. dosing, 6 h): 69 nM; concentration at 6 h ([2]; other: intra-tracheal, i.t. dosing, 6 h): 1000 nM; Kp at 6 h ([2]; iv, 0.1 mg/kg, i.v. dosing, 6 h, read-out: lung/plasma ratio at time(h)): 10; Kp at 6 h ([2]; other: intra-tracheal, i.t. dosing, 6 h, read-out: lung/plasma conc ratio at time(h)): 114; Lung conc i.t./i.v. Ratio at time (h) ([2]; 6 h): 15; BAL % administered dose at time (h) ([2]; i.t. dosing, 1.5 h): 0.2%; BAL % administered dose at time (h) ([2]; i.t. dosing, 6 h): 0.3%; BAL % administered dose at time (h) ([2]; i.t. dosing, 24 h): 0.1%; BAL % administered dose at time (h) ([2]; i.v. dosing, 0.1 h): BLQ; BAL % administered dose at time (h) ([2]; i.v. dosing, 1.5 h): BLQ; BAL % administered dose at time (h) ([2]; i.v. dosing, 6 h): BLQ; BAL % administered dose at time (h) ([2]; i.v. dosing, 24 h): BLQ

Further lines, with some results ahead:

IC50 (PDGFRβ [1])	Papp at 5 h, 10 μM (PAMPA permeability assay; 5 hr)	concentration at 0.1 h ([2]; iv, i.v. dosing, 0.1 h)	concentration at 1.5 h ([2]; iv, i.v. dosing, 1.5 h)	concentration at 24 h ([2]; iv, i.v. dosing, 24 h)	concentration at 0.1 h [2, 5]	concentration at 1.5 h [2, 6]	concentration at 24 h [2, 7]	Kp at 0.1 h [2, 8]	Kp at 1.5 h [2, 9]	Kp at 0.1 h [2, 10]	Kp at 1.5 h [2, 11]	Lung conc i.t./i.v. Ratio at time (h) ([2]; 0.1 h)	Lung conc i.t./i.v. Ratio at time (h) ([2]; 1.5 h)	Lung conc i.t./i.v. Ratio at time (h) ([2]; 24 h)	BAL % administered dose at time (h) ([2]; i.t. dosing, 0.1 h)	Ki (PDGFRβ [3])	SMILES	Cell viability at 100 nM (%) (MRC5 cells)	Cell viability at 300 nM (%) (MRC5 cells)	Cell viability at 1000 nM (%) (MRC5 cells)	other results
19.9 nM	0.0756 ×10⁻⁶ cm/s	501 nM	209 nM	66 nM	3430 nM	1370 nM	135 nM	55	62	177	884	6.9	6.6	2.0	2.4%	21.7 nM	COC(=O)c1ccc2c(c1)NC(=O)/C2=C(\Nc1ccc(S(=O)(=O)NOCCN(C)C)cc1)c1ccccc1 [Example 15]	106.9%	99%	97.5%	recovery at 5 hr, 10 μM (PAMPA permeability assay): 37.6%; Kp at 24 h ([2]; iv, i.v. dosing, 24 h, read-out: lung/plasma ratio at time(h)): 103; Kp at 24 h [2, 12]: 314; BAL % administered dose at time (h) ([2]; i.t. dosing, 1.5 h): 0.6%; BAL % administered dose at time (h) ([2]; i.t. dosing, 24 h): 0.1%; BAL % administered dose at time (h) ([2]; i.v. dosing, 0.1 h): 0.09%; BAL % administered dose at time (h) ([2]; i.v. dosing, 1.5 h): 0.02%; BAL % administered dose at time (h) ([2]; i.v. dosing, 24 h): 0.01%
5.04 nM	0.688 ×10⁻⁶ cm/s															9.84 nM	COC(=O)c1cc2c(cc1C)/C(=C(/Nc1ccc(C(=O)N(C)OCCN3CCNCC3)cc1)c1ccccc1)C(=O)N2 [Example 57]	123.5%	123.2%	91.2%	% phos: percentage phosphorylation after wash-out relative to maximal phosphorylation (100%) (PDGFRβ [4]): 73.1%; recovery at 5 hr, 10 μM (PAMPA permeability assay): 50.5%
